From the supplement of paper PMC10307832

How the values were obtained:
Experiment in all cases: relative viability (nuclei count vs DMSO), 5 days (fraction); higher = more cells survive
[1] = compound: COC1=CC=C(C=C1)CN2C=CC3=C2C=C(C=C3)C(=O)NO + CC(=O)c1c(C)c2cnc(Nc3ccc(N4CCNCC4)cn3)nc2n(C2CCCC2)c1=O [Palbociclib] (partner 0.5 µM)
Summary of the method: (§1)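 Dosing by pin tool came one day after lung cancer cell lines were seeded in 1536-well plates, using either one drug or a fixed anchor-drug dose plus five library-drug doses (not always all listed) in √10 steps. After 5 days, nuclei were counted on 4× images. Relative viability is treated-well nuclei count divided by vehicle-well nuclei count, and values are medians of duplicate plates.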

[2] = compound: COC1=CC=C(C=C1)CN2C=CC3=C2C=C(C=C3)C(=O)NO + CC1(C)CCC(c2ccc(Cl)cc2)=C(CN2CCN(c3ccc(C(=O)NS(=O)(=O)c4ccc(N[C@H](CCN5CCOCC5)CSc5ccccc5)c(S(=O)(=O)C(F)(F)F)c4)cc3)CC2)C1 [Navitoclax] (partner 0.5 µM)
Summary of the method: as §1

Veliparib + Crizotinib = compound: C[C@]1(c2nc3c(C(N)=O)cccc3[nH]2)CCCN1 [Veliparib] + C[C@@H](Oc1cc(-c2cnn(C3CCNCC3)c2)cnc1N)c1c(Cl)ccc(F)c1Cl [Crizotinib] (partner 1 µM)
Summary of the method: as §1

Veliparib + Linsitinib = compound: C[C@]1(c2nc3c(C(N)=O)cccc3[nH]2)CCCN1 [Veliparib] + C[C@]1(O)C[C@@H](c2nc(-c3ccc4ccc(-c5ccccc5)nc4c3)c3c(N)nccn32)C1 [Linsitinib] (partner 1 µM)
Summary of the method: as §1

Row | Cell Line | relative viability ([1]; first compound 0.253 µM) | relative viability ([1]; first compound 0.8 µM) | relative viability ([1]; first compound 2.53 µM) | relative viability ([1]; first compound 8 µM) | relative viability ([2]; first compound 0.253 µM) | relative viability ([2]; first compound 0.8 µM) | relative viability ([2]; first compound 2.53 µM) | relative viability ([2]; first compound 8 µM) | relative viability (Veliparib + Crizotinib; first compound 0.06325 µM) | relative viability (Veliparib + Crizotinib; first compound 0.2 µM) | relative viability (Veliparib + Crizotinib; first compound 0.6325 µM) | relative viability (Veliparib + Crizotinib; first compound 2 µM) | relative viability (Veliparib + Linsitinib; first compound 0.02 µM) | relative viability (Veliparib + Linsitinib; first compound 0.06325 µM) | relative viability (Veliparib + Linsitinib; first compound 0.2 µM) | relative viability (Veliparib + Linsitinib; first compound 0.6325 µM) | relative viability (Veliparib + Linsitinib; first compound 2 µM) | relative viability ([2]; first compound 0.08 µM) | relative viability (Veliparib + Crizotinib; first compound 0.02 µM) | relative viability ([1]; first compound 0.08 µM)
1 | LK-2 | 0.821 | 0.832 | 0.582 | 0.699 | 0.906 | 1 | 0.958 | 0.747 | 0.179 | 0.149 | 0.232 | 0.183 | 0.689 | 0.592 | 0.476 | 0.558 | 0.548 | – | – | –
2 | LOU-NH91 | 0.537 | 0.548 | 0.574 | 0.529 | 0.677 | 0.739 | 0.725 | 0.576 | 0.719 | 0.745 | 0.688 | 0.774 | 0.9 | 0.932 | 0.971 | 0.901 | 1.02 | 0.419 | 0.729 | –
3 | LU99A | 0.406 | 0.424 | 0.416 | 0.352 | 0.787 | 0.803 | 0.847 | 0.878 | 0.527 | 0.46 | 0.44 | 0.625 | 0.579 | 0.61 | 0.565 | 0.475 | 0.525 | – | 0.604 | –
4 | LXF-289 | 0.588 | 0.609 | 0.607 | 0.581 | 0.947 | 0.954 | 0.935 | 1.03 | 0.777 | 0.818 | 0.727 | 0.83 | 0.93 | 0.955 | 0.954 | 0.922 | 0.925 | 0.446 | 0.784 | –
5 | NCI-H23 | 0.611 | 0.556 | 0.496 | 0.461 | 0.689 | 0.896 | 0.985 | 0.728 | 0.521 | 0.606 | 0.596 | 0.625 | 0.775 | 0.504 | 0.574 | 0.505 | 0.65 | 0.675 | 0.52 | 0.393
6 | NCI-H322M | – | 0.513 | 0.435 | 0.48 | 1.1 | 1.13 | 1.18 | 1.24 | 0.83 | 0.948 | 0.919 | 0.945 | 1.03 | 0.864 | 0.885 | 0.826 | 0.972 | – | 0.895 | –
7 | NCI-H441 | 0.235 | 0.238 | 0.231 | 0.185 | 0.708 | 0.701 | 0.523 | 0.595 | 0.645 | 0.745 | 0.593 | 0.63 | 0.506 | 0.589 | 0.563 | 0.584 | 0.541 | 0.611 | 0.663 | 0.23
8 | NCI-H460 | 0.173 | 0.0964 | 0.186 | 0.108 | 1.15 | 1.08 | 1.15 | 1.1 | 0.869 | 0.934 | 0.734 | 1.02 | – | 0.806 | 0.664 | 0.527 | 0.72 | 1.04 | – | 0.201
9 | NCI-H520 | 0.194 | 0.208 | 0.214 | 0.195 | 1.18 | 1.27 | 1.15 | 1.09 | 0.698 | 0.697 | 0.713 | 0.836 | 0.984 | 1.03 | 0.966 | 0.922 | 1.04 | 0.279 | 0.808 | 0.197
10 | NCI-H647 | 0.364 | 0.379 | 0.494 | 0.438 | 1.04 | 1 | 0.959 | 1.21 | 1.01 | 1.23 | 1.03 | 0.907 | 1.09 | 1.01 | 0.989 | 1.02 | 1.09 | – | 1.07 | 0.441
11 | NCI-H727 | 0.631 | 0.698 | 0.644 | 0.601 | 0.404 | 0.404 | 0.543 | 0.341 | 0.685 | 0.855 | 0.668 | 0.764 | 0.284 | 0.219 | 0.253 | 0.293 | 0.24 | 0.342 | 0.814 | 0.61
12 | NCI-H838 | 0.237 | 0.226 | 0.228 | 0.18 | 1.22 | 1.17 | 1.22 | 1.09 | 0.9 | 0.851 | 0.83 | 0.895 | 1.07 | 0.981 | 1.03 | 0.888 | 1.1 | – | 0.859 | 0.214
13 | NCI-H1355 | 0.471 | 0.425 | 0.413 | 0.411 | 1 | 0.94 | 1.11 | 0.873 | 1.03 | 0.996 | 0.986 | 0.955 | – | 0.746 | 0.832 | 0.76 | 0.849 | 0.781 | – | 0.382
14 | NCI-H1437 | 0.295 | 0.344 | 0.366 | 0.326 | 1.08 | 1.1 | 1.15 | 1.05 | 0.929 | 0.9 | 0.81 | 0.834 | 1.01 | 1.04 | 1.02 | 1.03 | 1.08 | 0.898 | 0.902 | 0.283
